One experiment concerns the target T1, human NHE3 (Homo sapiens, UniProt P48764).
T1 construct: expressed in transfected cells; host or cells: OK26 cells (opossum kidney OK cells); OK26 ND sublines with opNHE1 reduced by 90% for A3
T1 sequence (P48764 26-834): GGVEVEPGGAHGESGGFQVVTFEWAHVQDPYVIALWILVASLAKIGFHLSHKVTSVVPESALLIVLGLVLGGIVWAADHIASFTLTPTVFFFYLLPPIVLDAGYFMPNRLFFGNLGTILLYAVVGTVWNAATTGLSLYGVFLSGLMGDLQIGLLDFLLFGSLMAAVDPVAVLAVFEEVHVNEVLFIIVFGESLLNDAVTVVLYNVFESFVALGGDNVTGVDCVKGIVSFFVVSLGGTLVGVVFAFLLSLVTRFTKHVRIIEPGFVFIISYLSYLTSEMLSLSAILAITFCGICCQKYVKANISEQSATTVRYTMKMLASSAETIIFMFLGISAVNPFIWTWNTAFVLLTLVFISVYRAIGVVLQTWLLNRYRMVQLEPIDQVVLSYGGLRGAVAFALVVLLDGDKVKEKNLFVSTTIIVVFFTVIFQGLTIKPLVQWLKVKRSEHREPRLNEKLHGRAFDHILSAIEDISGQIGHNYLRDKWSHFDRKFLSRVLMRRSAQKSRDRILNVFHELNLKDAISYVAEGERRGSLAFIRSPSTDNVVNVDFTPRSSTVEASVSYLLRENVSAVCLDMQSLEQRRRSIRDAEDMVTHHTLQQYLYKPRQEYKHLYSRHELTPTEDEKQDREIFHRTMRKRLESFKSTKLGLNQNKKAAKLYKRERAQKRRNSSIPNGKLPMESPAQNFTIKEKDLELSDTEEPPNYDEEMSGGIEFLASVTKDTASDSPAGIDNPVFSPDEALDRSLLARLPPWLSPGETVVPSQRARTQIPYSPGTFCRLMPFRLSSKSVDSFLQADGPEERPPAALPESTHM
The experiment in a line: Improved version of measurements of NHE3 inhibitory activities (OK26 ND cell lines). The format is cell-based. Conditions: OK26 ND cell lines (opNHE1 expression reduced by 90%), measurement time 8 minutes at 26° C.; read-out: hNHE3 IC50. As for the experimental part:
Pharmacological Test Example 3: Improved Version of Measurements of NHE3 Inhibitory Activities
OK26 cells express endogeneous NHE1 (opNHE1). In order to evaluate NHE3 inhibitory activities more precisely, OK26 ND cell lines in which the expression level of opNHE1 is reduced by 90% were established. Measurements of NEE inhibitory activities were carried out by using the established cell lines in the same manner as described in Pharmacological Test Example 1 except that the measurement time was 8 minutes (at 26° C.) to calculate more precise NHE3 inhibitory activities.

The target of the next experiment is T2, NHE1 (Homo sapiens, UniProt P19634).
T2 construct: HLF cells (Human hepatoma cell line) were used as cells for the test; endogenous in cells; host or cells: HLF cells (human hepatoma cell line)
The experiment in a line: Measurements of NHE1 inhibitory activities (HLF cells, BCECF pH recovery). The format is cell-based. Conditions: HLF cells (human hepatoma cell line), measured after 10 minutes; read-out: hNHE1 IC50. The protocol: Pharmacological Test Example 1: Measurements of NHE1 Inhibitory Activities
HLF cells (Human hepatoma cell line) were used as cells for the test. After 1×10^4 cells/well were seeded to a 96-well plate and cultured for 3 days, they were cultured overnight under a serum-free medium. Then, the cells were incubated in a stain solution of Tetramethylammonium (TMA) Buffer (130 mM TMA-C1, 5 mM KCl, 2 mM CaCl2, 1 mM MgSO2, 25 mM glucose, 20 mM HEPES; pH 7.4) containing 40 mM NH4Cl and 1 μg/mL pH-sensitive fluorescent indicator BCECF-AM at 37° C. for 40 minutes and then BCECF was introduced into the cells. After the cells were washed once with TMA Buffer and incubated in TMA+40 mM NH4Cl solution at 37° C. for 15 minutes, the solution was removed and 20 μL/well of TMA Buffer and 10 μL/well of each test compound solution prepared with TMA Buffer were added to each well. The measurements were carried out by adding 200 μL/well of Na Buffer (130 mM, NaCl, 5 mM KCl, 2 mM CaCl2, 1 mM MgSO2, 1 mM NaH2PO4, 25 mM glucose, 20 mM HEPES; pH 7.4) or TMA Buffer (for base measurement), immediately placing it on FlexStation (Molecular Device) and then, after 10 minutes, measuring, it the two wavelengths of 505 nm (excitation wavelength)/530 nm (emission wavelength) (measurement value) and 440 nm (excitation wavelength)/530 nm (emission wavelength) (isosbestic point value). A NHE activity was calculated by dividing a measurement value by an isosbestic point value and a NHE1 inhibitory activity was calculated by the following equation. NHE1 inhibitory activity (%)=100×(1−(Measurement value [addition of each compound]−Base [addition of TMA Buffer])/(Control [addition of Na Buffer]−Base [addition of TMA Buffer]))

pIC50: −log10 of the molar value.

T2 sequence (P19634 whole entry): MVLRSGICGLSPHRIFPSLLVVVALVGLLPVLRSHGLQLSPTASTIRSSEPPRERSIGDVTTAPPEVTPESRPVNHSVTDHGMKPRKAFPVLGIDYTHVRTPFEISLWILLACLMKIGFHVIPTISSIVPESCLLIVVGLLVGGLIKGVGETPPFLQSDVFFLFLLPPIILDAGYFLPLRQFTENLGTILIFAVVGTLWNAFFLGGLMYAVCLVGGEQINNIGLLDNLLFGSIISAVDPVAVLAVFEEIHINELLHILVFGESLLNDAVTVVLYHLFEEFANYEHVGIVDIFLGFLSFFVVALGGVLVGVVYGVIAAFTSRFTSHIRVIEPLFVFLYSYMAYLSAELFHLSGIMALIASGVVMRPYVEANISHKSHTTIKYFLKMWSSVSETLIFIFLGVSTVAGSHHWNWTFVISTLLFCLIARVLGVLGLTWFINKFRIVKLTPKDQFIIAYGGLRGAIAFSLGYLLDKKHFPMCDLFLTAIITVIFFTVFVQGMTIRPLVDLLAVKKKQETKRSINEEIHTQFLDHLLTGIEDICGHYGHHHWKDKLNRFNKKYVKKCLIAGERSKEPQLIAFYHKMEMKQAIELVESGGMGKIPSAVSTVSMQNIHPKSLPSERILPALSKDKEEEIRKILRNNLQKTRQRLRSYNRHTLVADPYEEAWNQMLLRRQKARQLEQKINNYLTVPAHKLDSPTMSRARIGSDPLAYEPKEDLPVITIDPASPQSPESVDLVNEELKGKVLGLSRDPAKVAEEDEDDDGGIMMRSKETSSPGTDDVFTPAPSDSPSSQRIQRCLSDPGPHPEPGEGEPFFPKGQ

With `C/C(=C\c1ccccc1-c1ccc(CO)cc1)C(=O)NC(=N)N` [Example 6, N-[(E)-3-(4′-hydroxymethyl-biphenyl-2-yl)-2-methyl-acryloyl]-guanidine], at human NHE3, the pIC50 (commonly the negative decadic logarithm of the IC50, by convention in mol/L) is 6.40.

With `COc1cc(-c2ccccc2/C=C(\C)C(=O)NC(=N)N)ccc1O` [Example 23, N-[(E)-3-(4′-hydroxy-3′-methoxy-biphenyl-2-yl)-2-methyl-acryloyl]guanidine], the pIC50 was 5.59 at NHE1 and 6.21 at human NHE3.

For the molecule `C/C(=C\c1ccccc1-c1ccc(O)cc1O)C(=O)NC(=N)N` [Example 53, N-[(E)-3-(2′,4′-hydroxy-2-yl)-2-methyl-acryloyl]-guanidine], the pIC50 at NHE1 is 5.54; on human NHE3, 6.13.

As to `C/C(=C\c1ccccc1-c1cccc(C(=O)NO)c1)C(=O)NC(=N)N` [Example 55, (E)-2′-(3-guanidino-2-methyl-3-oxo-propenyl)-biphenyl-3-carboxylic acid hydroxyamide], the results for the pIC50 on NHE1 and on human NHE3 were 5.54 and 6.36, respectively.

Regarding `C/C(=C\c1ccccc1-c1ccc(C(=N)N)cc1)C(=O)NC(=N)N` [Example 56, (E)-2′-(3-guanidino-2-methyl-3-oxo-propenyl)-biphenyl-4-carboxamidine], the pIC50 at NHE1 was 5.47; on human NHE3, 6.40.

As to `C/C(=C\c1ccccc1-c1ccc(C(=N)N)cc1C)C(=O)NC(=N)N` [Example 57, (E)-2′-(3-guanidino-2-methyl-3-oxo-propenyl)-2-methyl-biphenyl-4-carboxamidine], the negative logarithm of the IC50 (pIC50) was 5.96 at NHE1 and 7.00 at human NHE3.

As for `C/C(=C\c1ccccc1-c1ccc(C(=N)N)c(F)c1)C(=O)NC(=N)N` [Example 58, (E)-3-fluoro-2′-(3-guanidino-2-methyl-3-oxo-propenyl)-biphenyl-4-carboxamidine], the negative logarithm of the IC50 (pIC50) on NHE1 is 6.70; on human NHE3, 8.05.

For `C/C(=C\c1ccccc1-c1ccc(O)cc1F)C(=O)NC(=N)N` [Example 59, N-[(E)-3-(2′-fluoro-4′-hydroxy-biphenyl-2-yl)-2-methyl-acryloyl]-guanidine], the pIC50 on NHE1 is 5.49; on human NHE3, 6.55.

Regarding `C/C(=C\c1ccccc1-c1ccc(O)cc1Cl)C(=O)NC(=N)N` [Example 60, N-[(E)-3-(2′-chloro-4′-hydroxy-biphenyl-2-yl)-2-methyl-acryloyl]-guanidine], the pIC50 at NHE1 is 6.04; on human NHE3 it was 6.51.

In the case of `C/C(=C\c1ccccc1-c1ccc(O)c(C)c1)C(=O)NC(=N)N` [Example 61, N-[(E)-3-(4′-hydroxy-3′-methyl-biphenyl-2-yl)-2-methyl-acryloyl]-guanidine], the pIC50 is 5.37 on NHE1 and 6.40 at human NHE3.

For `C/C(=C\c1ccc(C)cc1-c1ccc(O)c(F)c1)C(=O)NC(=N)N` [Example 62, N-[(E)-3-(3′-fluoro-4′-hydroxy-5-methylbiphenyl-2-yl)-2-methyl-acryloyl]-guanidine], the pIC50 at NHE1 is 5.89; at human NHE3, 7.04.

As for `C/C(=C\c1ccc(C)cc1-c1ccc(F)c(O)c1)C(=O)NC(=N)N` [Example 63, N-[(E)-3-(4′-fluoro-3′-hydroxy-5-methyl-biphenyl-2-yl)-2-methyl-acryloyl]-guanidine], the pIC50 on NHE1 was 5.00; at human NHE3, 6.48.

On to `C/C(=C\c1ccc(Oc2ccc(S(N)(=O)=O)cc2)cc1-c1cccc(O)c1)C(=O)NC(=N)N` [Example 64, 4-[(E)-6-(3-guanidino-2-methyl-3-oxo-propenyl)-3′-hydroxy-biphenyl-3-yloxy]-benzenesulfonamide], for which the negative logarithm of the IC50 (pIC50) was 5.89 at NHE1 and 6.82 on human NHE3.

Take `C/C(=C\c1ccc(Oc2ccc(S(N)(=O)=O)cc2)cc1-c1ccc(O)cc1)C(=O)NC(=N)N` [Example 65, 4-[(E)-6-(3-guanidino-2-methyl-3-oxo-propenyl)-4′-hydroxy-biphenyl-3-yloxy]-benzenesulfonamide]: the pIC50 on NHE1 is 5.82; on human NHE3 it was 6.68.

In the case of `COc1cc(-c2cc(C)ccc2/C=C(\C)C(=O)NC(=N)N)ccc1O` [Example 66, N-[(E)-3-(4′-hydroxy-3′-methoxy-5-methyl-biphenyl-2-yl)-2-methyl-acryloyl]-guanidine], at human NHE3, the pIC50 is 6.89.

As to `C/C(=C\c1cccc(C)c1-c1ccc(O)cc1)C(=O)NC(=N)N` [Example 67, N-[(E)-3-(4′-hydroxy-6-methyl-biphenyl-2-yl)-2-methyl-acryloyl]-guanidine], the figures for the pIC50 at NHE1 and on human NHE3 were 5.68 and 6.92, respectively.

Regarding `C/C(=C\c1cccc(C)c1-c1cccc(O)c1)C(=O)NC(=N)N` [Example 68, N-[(E)-3-(3′-hydroxy-6-methyl-biphenyl-2-yl)-2-methyl-acryloyl]-guanidine], the pIC50 is 5.77 on NHE1 and 6.92 at human NHE3.

As to `C/C(=C\c1ccc(C)cc1-c1ccc(O)c(O)c1)C(=O)NC(=N)N` [Example 69, N-[(E)-3-(3′,4′-dihydroxy-5-methyl-biphenyl-2-yl)-2-methyl-acryloyl]-guanidine], the figures for the pIC50 at NHE1 and on human NHE3 were 6.24 and 7.00, respectively.

Regarding `C/C(=C\c1c(Br)cccc1-c1ccc(O)cc1)C(=O)NC(=N)N` [Example 70, N-[(E)-3-(3-bromo-4′-hydroxy-biphenyl-2-yl)-2-methyl-acryloyl]-guanidine], the pIC50 on human NHE3 is 6.02.

As to `COc1ccc(/C=C(\C)C(=O)NC(=N)N)c(-c2ccc(O)cc2)c1` [Example 73, N-[(E)-3-(4′-hydroxy-5-methoxy-biphenyl-2-yl)-2-methyl-acryloyl]-guanidine], on human NHE3, the pIC50 was 6.92.

Regarding `C/C(=C\c1ccc(-c2ccoc2)cc1)C(=O)NC(=N)N` [Example 85, N-[(E)-3-(4-furan-3-yl-phenyl)-2-methyl-acryloyl]-guanidine], the pIC50 on human NHE3 is 6.33.

In the case of `C/C(=C\c1ccc(-c2ccc(O)cc2C)cc1)C(=O)NC(=N)N` [Example 90, N-[(E)-3-(4′-hydroxy-2′-methyl-biphenyl-4-yl)-2-methyl-acryloyl]-guanidine], the pIC50 on human NHE3 was 6.52.

Turning to `C/C(=C\c1ccc(-c2cc(O)ccc2F)cc1)C(=O)NC(=N)N` [Example 91, N-[(E)-3-(2′-fluoro-5′-hydroxy-biphenyl-4-yl)-2-methyl-acryloyl]-guanidine], the pIC50 at human NHE3 was 6.72.

Regarding `C/C(=C\c1ccc(-c2ccc(O)c(O)c2)cc1)C(=O)NC(=N)N` [Example 92, N-[(E)-3-(3′,4′-dihydroxy-biphenyl-4-yl)-2-methyl-acryloyl]-guanidine], the pIC50 on human NHE3 was 6.82.

Take `C/C(=C\c1ccc(-c2ccc(CO)cc2)cc1)C(=O)NC(=N)N` [Example 93]: at human NHE3, the pIC50 was 6.60.

Turning to `C/C(=C\c1ccc(-c2ccc(O)cc2)cc1C)C(=O)NC(=N)N` [Example 95, N-[(E)-3-(4′-hydroxy-3-methyl-biphenyl-4-yl)-2-methyl-acryloyl]-guanidine], the pIC50 at human NHE3 is 6.62.

Take `C/C(=C\c1ccc(-c2ccc(O)cc2C)cc1C)C(=O)NC(=N)N` [Example 96, N-[(E)-3-(4′-hydroxy-3,2′-dimethyl-biphenyl-4-yl)-2-methyl-acryloyl]-guanidine]: the pIC50 on human NHE3 is 6.70.

Source of the values: patent US20120088737A2, “NOVEL ACYL GUANIDINE DERIVATIVES” (AJINOMOTO CO., INC, priority 2009, published 2012).
